# Tests used:
# [1] = system: Hek Blue human or mouse Mincle-expressing cells; assay type: cell-based; conditions: top concentrations, 24 h; compared with vehicle only-treated cells
# BALB/c mice = test: Splenocyte restimulation with M72 and intracellular cytokine staining of CD4/CD8 T cells after vaccination; assay type: in vivo, mouse; conditions: 0.125 μg antigen plus 2, 10, or 50 nmol liposomal adjuvant, i.m. two times, spleens 5 days post-secondary
# Method: Animal studies were carried out in an OLAW and AAALAC accredited vivarium in accordance with University of Montana's IACUC guidelines for the care and use of laboratory animals. Groups of 10–14 BALB/c mice were vaccinated intramuscularly with 0.125 μg M72 antigen and indicated concentrations of various CLR adjuvant candidates (liposomal formulations) in 50 μl total volume per injection. After 14 days, blood and serum samples were collected and a secondary vaccination was administered. At day 19 (5 days post-secondary vaccination), 3–6 mice per group were euthanized and spleens were harvested the assessment of cell-mediated immunity. At day 28 (14 days post booster vaccination) the remaining 7 mice in each group were euthanized and blood was collected for the measurement of M72 specific humoral immunity.
# Spleens were harvested from vaccinated mice 5 days after secondary injections and splenocytes were harvested by disruption of the spleens through a 100 μm filter. Red blood cells were lysed by incubation with red blood cell lysis buffer (Sigma) for 5 min followed by washing in 1x PBS. Cells were plated in a 96 well plate at 5 × 10^6 cells/well in 200 μL complete RPMI1640 media. Cells were incubated with 1 μg/mL M72 antigen for […] at 37°C. After 7 h, GolgiPlug (Brefeldin A, BD Biosciences) was added to each well and incubated at 37°C for a further 12 h. Following incubation, cells were stained with the cell surface antibodies against CD3e PerCP-Cy5.5 (Tonbo Biosciences, 145-2C11), CD4a APC-Cy7 (Tonbo Biosciences, RM4-5) and CD8a PE-Cy7 (Tonbo Biosciences, 53–6.7) and viability stain (Ghost 510, Tonbo Biosciences). Cells were treated with cytofix/cytoperm (BD) and stained with anti-IFNγ PE-CF594 (BD, XMG1.2), anti-IL2 FITC (Biolegend, JES6-5H4), anti-IL-5 PE (BD, TRFK5), anti-IL17A BV421 (Biolegend, TC11-18H10.1), and anti-TNFα APC (Invitrogen, MP6-XT22). Data was collected using an LSRII flow cytometer (BD) and analyzed using FlowJo 10.0 software (TreeStar). Splenocytes were gated on live, single cells, then CD3+ to identify all T cells, then gated as CD4+CD8- to identify CD4 T cells or CD4-CD8+ to identify CD8 T cells. Gates for intracellular cytokine positive CD4 or CD8 T cells are set based on re-stimulation of naïve splenocytes. Gating strategies for the detection of antigen specific CD4+ and CD8+ T cells are outlined in Supplemental Figure 3.
# Figure 7 Induction of IL-17 producing CD4+ and CD8+ T cells from an αTDE adjuvanted M72 vaccine. BALB/c mice, 10 per group, were immunized two times i.m. with 0.125 μg antigen plus 2, 10, or 50 nmol of the indicated adjuvant. Spleens were harvested from a subset of 3 mice per group at 5 days post-secondary vaccination. Splenocytes were restimulated with 1 μg/mL whole antigen and transport inhibitors followed by surface staining for CD3, CD4, and CD8 and then intracellular cytokine staining. Data represent percentage of live, CD3^+/CD4^+, left, or CD3^+/CD8^+, right, cells that are also positive for IL-17A upon stimulation.
# Figure 8 B16 liposomes biases a Th17/Th2 adaptive immune response. BALB/c mice, 14 per group, were immunized twice, 14 days apart, i.m with 0.1, 1, or 10 μg of M72 antigen plus either blank DDA:DSPC liposome or B16 loaded (10 nmol final dose) liposome. (A,B) M72-specific serum antibody titers at 14 days post-secondary vaccination. (C–F) Spleens were harvested from mice at 5 days post-secondary vaccination and restimulated with 1 μg/mL whole antigen and transport inhibitors followed by surface staining for CD3, CD4, and CD8 and then intracellular cytokine staining. (C) Percent of live, CD3^+/CD4^+/IL5+ cells, (D) Percent of live, CD3^+/CD8^+/IFNγ+ cells, (E) Percent of live, CD3^+/CD4^+/IL17+ cells, and (F) Percent of live, CD3^+/CD8^+/IL17+ cells. ^*p < 0.05, ^**p < 0.01, ^****p < 0.001.
# Supplemental Figure 10. Production of IFNɣ, IL-2, IL-5 or TNFα by CD4 or CD8 T cells in response to various CLR compounds. […]
# THP-1 cells = test: TNFα production from THP-1 cells (ELISA); assay type: cell-based, human; conditions: plate-coated compound, 24 h
# Method: Supernatants were harvested from treated cells following 18–24 h of incubation. Supernatants were analyzed using a DuoSet TNFα ELISA (R&D Systems, Minneapolis, MN) or Luminex multiplex panel for analytes TNFα, IL-1β, IL-6, IFNγ, IL-12p70, and IL-23 (R&D Systems) per the manufacturer's instructions. Multiplex analysis was performed using a Luminex 200 instrument (Luminex Corporation) and analyzed with StarStation2.3 software. ELISAs were read on a plate reader at 450 nm and cytokine concentration was calculated by fitting the standard curve OD values to a 4-parameter logistical model using curve fitting software (XLfit, IDBS, Alameda, CA).
# Next, investigation into activity of the alpha-branched TDE compounds was extended to include both human and murine monocytic cell lines, THP-1 and RAW264.7, respectively. These cell lines have previously been reported as responsive to the Mincle receptor agonists TDM and TDB ([30], [31]).
# Figure 3 TNFα production from human THP-1 cells in response to stimulation with synthetic αTDE compounds. The indicated compounds were dissolved in 50% isopropanol/isooctane, serially diluted in vehicle and then dried to the bottom of a tissue culture plate. THP-1 cells were applied to the compound-coated plates and incubated at 37°C; supernatant was harvested 24 h later and analyzed for TNFα via ELISA (A-E). Results from the 200 μg/ml concentration vs. each compounds acyl chain length are shown in (F). Data points are average of at least two independent experiments ± SD.
compound,measurement,setting,value
"CCCCCCCCCCCCCCCCCCCCCC(=O)OC[C@H]1O[C@H](O[C@H]2O[C@H](COC(=O)CCCCCCCCCCCCCCCCCCCCC)[C@@H](O)[C@H](O)[C@H]2O)[C@H](O)[C@@H](O)[C@@H]1O [TDB, trehalose dibehenate, reference compound]",Cell viability of Mincle HEK cells,[1],marked decreases in viability
same,IL-17+ CD4+ and CD8+ T cells (Th17 response) after M72 re-stimulation,BALB/c mice,able to boost Th17
same,TNFα induction from THP-1 cells (in words),THP-1 cells,activity at the highest concentrations tested

# — PMC6403188, “Species-Specific Structural Requirements of Alpha-Branched Trehalose Diester Mincle Agonists” (Frontiers in Immunology, 2019)
